Where a name gives a salt, the structure may show the parent alone.
Experiments:
[1] = target: Acetylcholinesterase (Electrophorus electricus) (UniProt O42275); assay: Inhibition of electric eel AChE using acetylthiocholine iodide as substrate at 10 uM preincubated for 20 mins followed by substrate addition and measured every 20 secs for 3 mins by Ellman's method relative to control; conditions: time 23.0 min
[2] = Selectivity index, ratio of IC50 for horse serum BuChE using butyrylthiocholine iodide as substrate to IC50 for electric eel AChE using acetylthiocholine iodide as substrate
Cholinesterase = Cholinesterase (Equus caballus, UniProt P81908); assay: Inhibition of horse serum BuChE using butyrylthiocholine iodide as substrate preincubated for 20 mins followed by substrate addition and measured every 20 secs for 3 mins by Ellman's method
Acetylcholinesterase [3] = target: T1, Acetylcholinesterase (Electrophorus electricus, UniProt O42275); assay: Inhibition of electric eel AChE using acetylthiocholine iodide as substrate preincubated for 20 mins followed by substrate addition and measured every 20 secs for 3 mins by Ellman's method
Acetylcholinesterase [4] = target: T1, Acetylcholinesterase; assay: Binding affinity to electric eel AChE assessed as inhibition constant by Lineweaver-Burk plot analysis
MRC5 = assay: Cytotoxicity against human MRC5 cells assessed as reduction in cell viability at 50 ug/ml relative to control; assay type: toxicity, cell-based; conditions: at 50 µg/mL
[5] = Lipophilicity, log P of the compound in n-octanol/water by HPLC method; assay type: physicochemical
[6] = Cytotoxicity against human MRC5 cells assessed as reduction in cell viability; assay type: toxicity, cell-based

Chain of Acetylcholinesterase (Electrophorus electricus) (O42275 24-633 limits assumed): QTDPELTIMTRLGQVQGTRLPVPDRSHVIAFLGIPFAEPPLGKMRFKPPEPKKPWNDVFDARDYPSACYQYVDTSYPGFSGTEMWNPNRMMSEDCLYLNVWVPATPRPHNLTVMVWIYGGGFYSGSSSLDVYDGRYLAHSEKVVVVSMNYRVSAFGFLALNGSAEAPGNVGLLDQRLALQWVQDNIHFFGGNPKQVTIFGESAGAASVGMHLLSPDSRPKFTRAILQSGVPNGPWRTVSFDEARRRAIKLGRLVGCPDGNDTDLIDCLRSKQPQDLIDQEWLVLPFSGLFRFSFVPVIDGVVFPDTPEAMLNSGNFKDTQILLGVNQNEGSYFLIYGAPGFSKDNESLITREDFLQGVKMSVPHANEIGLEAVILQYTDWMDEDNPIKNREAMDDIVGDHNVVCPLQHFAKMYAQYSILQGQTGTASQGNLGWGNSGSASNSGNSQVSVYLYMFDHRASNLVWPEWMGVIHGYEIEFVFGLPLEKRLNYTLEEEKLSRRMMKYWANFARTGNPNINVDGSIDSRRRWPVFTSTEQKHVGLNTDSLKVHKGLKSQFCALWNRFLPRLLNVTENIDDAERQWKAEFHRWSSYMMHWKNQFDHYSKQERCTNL
T1 sequence (O42275 whole entry): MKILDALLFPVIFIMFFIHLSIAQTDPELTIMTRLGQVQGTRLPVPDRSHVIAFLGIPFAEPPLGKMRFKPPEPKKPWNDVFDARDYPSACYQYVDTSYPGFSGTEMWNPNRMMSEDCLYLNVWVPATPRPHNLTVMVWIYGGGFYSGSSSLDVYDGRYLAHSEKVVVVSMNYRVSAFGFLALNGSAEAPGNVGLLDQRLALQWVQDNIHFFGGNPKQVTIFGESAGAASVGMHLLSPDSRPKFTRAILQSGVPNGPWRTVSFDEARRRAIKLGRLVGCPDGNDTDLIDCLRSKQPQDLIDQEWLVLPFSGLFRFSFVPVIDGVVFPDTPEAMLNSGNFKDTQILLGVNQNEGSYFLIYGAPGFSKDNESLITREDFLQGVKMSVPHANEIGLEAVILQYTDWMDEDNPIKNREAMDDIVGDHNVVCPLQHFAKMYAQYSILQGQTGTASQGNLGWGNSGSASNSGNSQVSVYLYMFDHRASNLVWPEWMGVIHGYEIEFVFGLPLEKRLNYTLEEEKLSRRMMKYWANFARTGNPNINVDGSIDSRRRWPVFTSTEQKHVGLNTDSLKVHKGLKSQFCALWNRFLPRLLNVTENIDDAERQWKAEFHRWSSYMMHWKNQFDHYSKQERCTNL
Chain of Cholinesterase (P81908 whole entry): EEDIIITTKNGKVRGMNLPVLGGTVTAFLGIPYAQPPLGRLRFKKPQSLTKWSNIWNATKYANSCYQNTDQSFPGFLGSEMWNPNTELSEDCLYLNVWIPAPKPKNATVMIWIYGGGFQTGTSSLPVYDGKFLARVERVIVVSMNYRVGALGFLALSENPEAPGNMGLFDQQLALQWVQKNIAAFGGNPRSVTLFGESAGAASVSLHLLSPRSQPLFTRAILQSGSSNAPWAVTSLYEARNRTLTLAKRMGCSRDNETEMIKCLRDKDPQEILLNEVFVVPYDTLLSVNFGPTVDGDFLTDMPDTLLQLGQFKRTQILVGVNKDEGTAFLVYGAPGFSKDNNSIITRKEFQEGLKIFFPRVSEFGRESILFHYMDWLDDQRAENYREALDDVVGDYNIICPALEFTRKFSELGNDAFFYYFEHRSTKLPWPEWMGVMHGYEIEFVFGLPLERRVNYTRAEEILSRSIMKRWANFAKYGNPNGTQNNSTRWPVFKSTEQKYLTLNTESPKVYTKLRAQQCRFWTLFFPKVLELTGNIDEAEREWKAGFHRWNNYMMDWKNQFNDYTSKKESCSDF

SMILES	inhibition [1] [%]	Ratio IC50 [2]	IC50 (Cholinesterase) [µM]	IC50 (Acetylcholinesterase [3]) [µM]	Ki (Acetylcholinesterase [4]) [µM]	Activity (MRC5) [%]	logP [5]	IC50 [6] [µg/mL]
COc1cc2c3c(cc4ccccc4c3c1OC)NCC2	12	–	–	–	–	–	–	–
COc1cc2c3c(c1OC)-c1ccccc1CC3N(C(=O)c1cc[n+](Cc3ccccc3F)cc1)CC2 (racemic)	–	3.3	1.37	0.41	–	–	–	–
COc1cc2c3c(c1OC)-c1ccccc1C[C@@H]3N(C(=O)c1cc[n+](Cc3ccccc3Cl)cc1)CC2.[Br-]	–	30.3	1.82	0.06	0.22	5.03	2.36	–
COc1cc2c3c(cc4ccccc4c3c1OC)N(C(=O)c1cc[n+](Cc3ccccc3Cl)cc1)CC2	–	0.3	0.44	1.64	–	–	–	–
COc1cc2c3c(c1OC)-c1ccccc1CC3N(C(=O)c1cc[n+](Cc3cccc(F)c3F)cc1)CC2 (racemic)	–	2	1.54	0.75	–	–	–	–
COc1cc2c3c(c1OC)-c1ccccc1CC3N(C(=O)c1cc[n+](Cc3cccc(F)c3)cc1)CC2 (racemic)	–	3	1.34	0.45	–	–	–	–
COc1cc2c3c(c1OC)-c1ccccc1C[C@H]3N(C(=O)c1cc[n+](Cc3ccccc3Cl)cc1)CC2.[Br-]	–	0.8	2.49	2.94	1.65	5.3	2.36	–
COc1cc2c3c(c1OC)-c1ccccc1CC3N(C(=O)c1cc[n+](Cc3c(F)cccc3F)cc1)CC2 (racemic)	–	1.2	0.97	0.8	–	–	2.08	–
COc1cc2c3c(c1OC)-c1ccccc1C[C@@H]3N(C(=O)c1cc[n+](Cc3ccccc3)cc1)CC2	–	40.8	4.9	0.12	0.17	–	2.2	–
COc1cc2c3c(cc4ccccc4c3c1OC)N(C(=O)c1ccncc1)CC2	16	–	–	–	–	–	–	–
COc1cc2c3c(cc4ccccc4c3c1OC)N(C(=O)c1cc[n+](Cc3ccccc3)cc1)CC2	69	–	–	–	–	–	–	–
COc1cc2c3c(c1OC)-c1ccccc1CC3N(C(=O)c1cc[n+](Cc3ccccc3Cl)cc1)CC2.[Br-] (racemic)	–	3.9	0.71	0.18	–	2.96	2.36	–
COc1cc2c3c(c1OC)-c1ccccc1C[C@H]3N(C(=O)c1cc[n+](Cc3ccc(F)cc3)cc1)CC2	–	1.3	15.4	12.2	6.87	–	2.3	–
COc1cc2c3c(cc4ccccc4c3c1OC)N(C(=O)c1cc[n+](Cc3ccccc3F)cc1)CC2	–	0.1	0.28	2.73	–	–	–	–
COc1cc2c3c(c1OC)-c1ccccc1C[C@H]3N(C(=O)c1cc[n+](Cc3ccccc3)cc1)CC2	–	0.7	4.95	7.15	2.57	–	2.2	–
COc1cc2c3c(c1OC)-c1ccccc1CC3N(C(=O)c1cc[n+](Cc3ccc(Cl)cc3)cc1)CC2 (racemic)	31	–	–	–	–	–	2.67	–
COc1cc2c3c(c1OC)-c1ccccc1CC3N(C(=O)c1cc[n+](Cc3cccc(Cl)c3)cc1)CC2 (racemic)	–	0.5	0.96	2.15	–	–	2.62	–
COc1cc2c3c(c1OC)-c1ccccc1CC3N(C(=O)c1cc[n+](Cc3ccc(F)cc3)cc1)CC2.[Br-] (racemic)	–	7	4.73	0.66	–	2.46	2.3	–
COc1cc2c3c(c1OC)-c1ccccc1CC3N(C(=O)c1cc[n+](Cc3ccccc3)cc1)CC2.[Br-] (racemic)	–	3.8	1.33	0.35	–	3.62	2.2	–
COc1cc2c3c(c1OC)-c1ccccc1CC3N(C(=O)c1ccncc1)CC2 (racemic)	5	–	–	–	–	–	–	–
COc1cc2c3c(c1OC)-c1ccccc1C[C@@H]3N(C(=O)c1cc[n+](Cc3ccc(F)cc3)cc1)CC2	–	23.2	8.58	0.37	0.27	–	2.3	–
COc1cccc2c1C(=O)c1c(O)c3c(c(O)c1C2=O)C[C@@](O)(C(=O)CO)C[C@@H]3O[C@H]1C[C@H](N)[C@H](O)[C@H](C)O1 [DOXORUBICIN HYDROCHLORIDE]	–	–	–	–	–	–	–	1.54
